Reference: patent publication US11142543B2 (priority 2016, dated 2021)
Marks after values point to notes of the source that are not given here.

How the values were obtained:
[1] = test system: ICR mice; test: Tail suspension test (TST), Example 39; format: in vivo; conditions: gavage 10 mg/Kg for 6 days, t-test
Excerpt: Tail Suspension Test (TST) to Investigate the Antidepressant Activity of Some Compounds and Some Natural Products of the Present Invention
(§1) Male ICR mice (body weight, 20±2 g) used in the experiment were purchased from the Experimental Animal Center of Shanghai Institute of Materia Medica, Chinese Academy of Sciences. They were free access to water and kept at room temperature (23 2) ° C. in natural light. All mice were randomly divided into a blank control group and a test group, with 10 mice in each group and 5 mice/cage. The experiment was started after 3 days of adaptation in the breeding environment. The mice were fasted for 12 hours before the experiment but free access to water. The specific administration method was gavage administration, and the administration dose was 10 mg/Kg, and the blank control group was given an equal volume of 0.5% CMC-Na.
Specific procedures: The mice were continuously administered for 6 days, and tested 1 hour after the last administration. Firstly, the spontaneous activity of the mice was measured by the open field method, that is, the mice were individually placed in a cylindrical glass jar for 4 minutes, and the number of lifting arms within the last 2 minutes was recorded. Then the tail of the mice was stick onto the horizontal bar by the tape at 2 cm from the tip of the tail, and the animal eyesight was separated by the surrounding plates. The horizontal bar was about 25 cm from the ground, so that the mouse was about 10 cm from the ground, and the timing was 6 min. The cumulative immobility time within the last 4 minutes was recorded. Each group of mice was operated in parallel.
(§2) Experimental data processing: The experimental results were expressed as mean standard error (x SD). Statistical analysis was performed using t-test to determine whether it was significant. […] Then, the t-test was performed on the experimental index of tail suspension test to determine whether it had antidepressant effect.

[2] = test system: ICR mice; test: Toxicity observed during antidepressant efficacy screening (FST and TST animal batch); format: in vivo; conditions: same animal batch as efficacy screening, gavage 10 mg/Kg
Excerpt: as §1, with “dose of the administration group” for “dose”
as §1, with “The specific administration method was gavage administration, and the administration dose was 10 mg/Kg, and the blank control group was given an equal volume of 0.5% CMC-Na.” left out

[3] = test system: ICR mice; test: Forced swimming test (FST), Example 38; format: in vivo; conditions: gavage 10 mg/Kg for 6 days, t-test
Excerpt: Forced swimming test (FST) to investigate the antidepressant activity of some compounds and some natural products of the present invention
as §1, with “dose of the administration group” for “dose”
Specific procedures: The mice were continuously administered for 6 days, and tested 1 hour after the last administration. Firstly, the spontaneous activity of the mice was measured by the open field method, that is, the mice were individually placed in a cylindrical glass jar for 4 minutes, and the number of lifting arms within the last two minutes was recorded. The mice were then individually placed in a cylindrical glass jar (20 cm high and 14 cm in diameter) with a water depth of 10 cm and a water temperature of 23° C. to 25° C. After mice entered into water, a 6-minute timing was conducted, the cumulative immobility time (the criteria for determining immobility: the mice stopped struggling in the water, or floated with only small limb movements to keep the head float on the water) within the last four minutes was recorded. Each group of mice was operated in parallel.
as §2, with “forced swimming” for “tail suspension test”

[4] = in vivo; conditions: male, SD, rat
Description: The healthy male SD rats (about 270 g) were fasted for 10 h before administration, and were free to drink water. […] The time points of blood collection from the eye socket were 30 min, 1 h, 2 h, 4 h, 6 h, 8 h, 10 h, 24 h, 48 h after the administration (n=5). […] The time points of blood collection from the eye socket were 5 min, 10 min, 30 min, 1 h, 2 h, 4 h, 8 h (n=4). The plasma was placed in a heparin-coated centrifuge tube, centrifuged for 10 min (8000 r), and the supernatant was taken and stored in a −80° C. refrigerator. After acetonitrile precipitation treatment, it was detected by HPLC-QQQ. The pharmacokinetic parameters, PK parameters of each mouse were calculated by a non-compartmental model of WinNonlin (Pharsight 6.2, NC, USA). All parameters were represented with Mean S.D. Bioavailability (F)=(AUCOral/DoseOral)/(AUCtail vein/Dosetail vein)

[5] = test system: ICR mice with ethanol-induced memory reproduction disorder
Description: Learning memory is an advanced function of the human and animal brains.
Before the retesting after training, the ethanol solution was administered to the mouse to block the memory reproduction process of the animal, resulting in memory reproduction disorder.
Male ICR mice, 16-18 g, were purchased from Shanghai Sippr-BK laboratory animal Co. Ltd.
40 male mice were randomly divided into 4 groups by Excel, and each group contained 10 animals. The mice in group 1 (blank group) and mice in group 2 (model group) were orally administered (i.g.) with drinking water daily.
After 3 weeks of administration, 1 hour after the last administration, the exercise was performed once in the dark avoidance method. The mice were placed in a dark avoidance box, and placed in the bright room with the back facing the hole. At the same time, the video analysis device was activated, and the animal passed through the hole into the dark room and received an electric shock, and the timing was automatically stopped. The mice were removed and the screen analysis would record the time required for each mouse to experience an electric shock from the bright room to the dark room, which was the latency period. After 24 h, the test was carried out, and 45% ethanol solution (0.1 ml/10 g) was orally administered 30 min before the test. The video analysis system would automatically record all relevant data of the animal. Data were expressed as mean standard deviation (x±s), and data difference statistics were analyzed by one-way variance (ANOVA) or X^2 test. The difference between groups was judged by P<0.05.

[6] = test system: rats; test: Tail suspension test in rat model, compound C-11 versus fluoxetine, Example 41; format: in vivo; conditions: vs vehicle group, FIG. 4
Description: On the day of the behavioral test, animals were dosed twice and administered orally 4 h and 1 h before the behavioral test. During the experiment, the tail of the rat was hung on a tail suspension test stand about 15 cm away from the ground with a tape or a clip at about 1 cm away from the tail end. […] The experimental time for each group was 6 minutes.

[7] = test system: rats; test: Forced swimming test in rat model, compound C-11 versus fluoxetine, Example 41; format: in vivo; conditions: vs vehicle group, FIG. 3
Description: The rats were placed in a cylindrical jar 24 hours before administration to accommodate the underwater environment for 15 min. On the day of the behavioral test, animals were administered twice and administered orally 4 h and 1 h before the behavioral test. The rats were individually placed in a cylindrical glass jar, timed for 6 minutes, and the number of arm lift was recorded within the last 2 minutes. The rats were then placed in a cylindrical glass jar having 30 cm high and 20 cm in diameter. […] Water temperature was 23° C.-25° C.

[8] = test system: C57 mice susceptible to social defeat by CD-1 aggressive mice; test: Social defeated stress (SDS) model, Example 42; format: in vivo; conditions: C-11 10 mg/kg gavage every day, fluoxetine 10 mg/kg intraperitoneally every day, 3 weeks
Description: Male CD-1 aged 4-6 months mice which had passed childbearing age were raised separately, allowed to eat freely and adapt to the environment for about one week. Male C57 mice (aged 8-20 weeks differently) were used to screen for aggressive CD-1 mice. The mice screened by C57 were placed directly in the cage of CD-1 for 3 minutes, and the latency period for CD-1 to start showing offensive was recorded, and then the mice screened by C57 were moved out. For each CD-1 mouse, the same C57 was used to screen it three times a day, and different C57-selected mice were selected every day for a total of three days of screening. […] After screening for CD-1 aggressive mice for modeling, each C57 test mouse was exposed to different CD-1 aggressive mice for 10 consecutive days, 10 minutes each day. […] After 10 minutes of contact, the test mice were isolated from the invaders. Test mice and aggressive mice were placed in adjacent sections of the same squirrel cage, separated by a porous transparent plastic baffle, allowing test mice to be exposed under a threatening chronic stress stimulation for the next 24 hours. The control mice were placed in cages having the same structure, but the other side of the baffle was placed with other mice of the same line that were replaced daily. After 24 hours after the end of the last day of the experiment, we evaluated CSDS-induced social behavioral changes and selected all susceptible mice based on previous reports. The social interaction ratio (SI ratio) was calculated according to the following formula: SI ratio=time for the mouse in the interaction area when the aggressor exists/time for the mouse in the interaction area when the aggressor is absent. […] All selected test mice and control mice were then housed individually for 3 weeks. […] The mice in the vehicle group were administered by gavage with 0.5% CMC-Na every day. The SI ratio was assessed once a week.
Two-way ANOVA was used to analyze and LSD method was used for the multiple comparisons of calibration results. The data were expressed in Mean sem. […]

[9] = i.g. once a day for three consecutive weeks, donepezil 1.6 mg/kg, C-49 15 mg/kg, n = 10

In the case of C[C@H]1CC[C@@]2(OC1)O[C@H]1C[C@H]3[C@@H]4CC[C@@H]5C[C@H](NC(=O)NC6CCC(O)CC6)CC[C@]5(C)[C@H]4CC[C@]3(C)[C@H]1[C@@H]2C (stereo partly drawn) [compound C-5], the “effect on immobility time of mouse in tail suspension test compared with the blank group (in words)” value [1] is reported as “certain antidepressant activity”.

In the case of C[C@H]1CC[C@@]2(OC1)O[C@H]1C[C@H]3[C@@H]4CC[C@@H]5C[C@H](NC(=O)NN6CCOCC6)CC[C@]5(C)[C@H]4CC[C@]3(C)[C@H]1[C@@H]2C [compound C-7], the “effect on immobility time of mouse in tail suspension test compared with the blank group (in words)” value [1] is reported as “certain antidepressant activity”.

For C[C@H]1CC[C@@]2(OC1)O[C@H]1C[C@H]3[C@@H]4CC[C@@H]5C[C@@H](NC(=O)NC6CCCCC6)CC[C@]5(C)[C@H]4CC[C@]3(C)[C@H]1[C@@H]2C [compound C-12], the “effect on immobility time of mouse in tail suspension test compared with the blank group (in words)” value [1] was “significant antidepressant activity”, the toxicity observed [2] was “No significant toxicity was observed” and the “effect on immobility time of mice in forced swimming test compared with the blank group (in words)” value [3] was “significant antidepressant activity”.

With C[C@H]1CC[C@@]2(OC1)O[C@H]1C[C@H]3[C@@H]4CC[C@@H]5C[C@H](NC(=O)Nc6ccccc6)CC[C@]5(C)[C@H]4CC[C@]3(C)[C@H]1[C@@H]2C [compound C-13] the “effect on immobility time of mice in forced swimming test compared with the blank group (in words)” value [3] was “significantly reduce the immobility time”.

For COC(=O)C1(NC(=O)N[C@@H]2CC[C@@]3(C)[C@H](CC[C@@H]4[C@@H]3CC[C@]3(C)[C@@H]5[C@H](C[C@@H]43)O[C@]3(CC[C@H](C)CO3)[C@H]5C)C2)CCCCC1 [compound C-19], the “effect on immobility time of mouse in tail suspension test compared with the blank group (in words)” value [1] was “certain antidepressant activity”.

For C[C@H](CO)CC[C@H]1O[C@H]2C[C@H]3[C@@H]4CC[C@@H]5C[C@H](NC(=O)NC6CCCCC6)CC[C@]5(C)[C@H]4CC[C@]3(C)[C@H]2[C@@H]1C [compound C-23], the “effect on immobility time of mice in forced swimming test compared with the blank group (in words)” value [3] was “certain antidepressant activity”.

In the case of C[C@H]1CC[C@@]2(OC1)O[C@H]1C[C@H]3[C@@H]4CC[C@@H]5C[C@H](NC(=O)N(CCO)C6CCCCC6)CC[C@]5(C)[C@H]4CC[C@]3(C)[C@H]1[C@@H]2C [compound C-35], the “effect on immobility time of mouse in tail suspension test compared with the blank group (in words)” value [1] is reported as “significantly reduce the immobility time”.

For C[C@H]1CC[C@@]2(OC1)O[C@H]1C[C@H]3[C@@H]4CC[C@@H]5C[C@H](NC(=O)N(CCNC(=O)CN(C)C)C6CCCCC6)CC[C@]5(C)[C@H]4CC[C@]3(C)[C@H]1[C@@H]2C [compound C-49], the “effect on immobility time of mouse in tail suspension test compared with the blank group (in words)” value [1] was “significantly reduce the immobility time”, the bioavailability [4] was 11.1% and the AUC ([4]; iv, 1 mg/kg) was 293 ng·h/mL. For the same molecule, the Cmax ([4]; iv, 1 mg/kg) was 285 ng/mL, the Tmax ([4]; iv, 1 mg/kg) was 0.1 h and the AUC ([4]; po, 100 mg/kg) was 3120 ng·h/mL. For the same molecule, the Cmax ([4]; po, 100 mg/kg) was 251 ng/mL, the Tmax ([4]; po, 100 mg/kg) was 2.8 ± 1.1 h and the MRT ([4]; po, 100 mg/kg, MRT) was 13.6 h. For the same molecule, the half-life ([4]; po, 100 mg/kg, T1/2) was 582 min, the “effect on immobility time of mice in forced swimming test compared with the blank group (in words)” value [3] was “significantly reduced the time immobility” and the “improvement effect on learning and memory (in words)” value ([5]; 15 mg/kg, three weeks, mice with memory reproduction disorder induced by ethanol) was “significant improvement effect”. For the same molecule, the “Number of shocked animals” value [5, 9] was 3*, the “Total number of errors (within 5 min)” value [5, 9] was 3** and the “Latency period from an open room to a dark room” value ([5]; i.g. once a day for three consecutive weeks, donepezil 1.6 mg/kg, C-49 15 mg/kg, x ± s, n = 10) was 215.8 ± 135.8 s.

With CNCCC(Oc1ccc(C(F)(F)F)cc1)c1ccccc1 (stereo not drawn) [fluoxetine] the “effect on cumulative immobility time of rats in tail suspension test” value (“effect on cumulative immobility time” for short) ([6]; dose 1.73 mg/kg oral) was “had no effect”, the “effect on cumulative immobility time” value ([6]; dose 3.46 mg/kg oral) was “had no effect” and the “effect on cumulative immobility time” value ([6]; dose 6.92 mg/kg oral) was “significantly affect the cumulative immobility time”. For the same molecule, the “effect on immobility time of rats in forced swimming test” value (“effect on immobility time of rats” for short) ([7]; dose 1.73 mg/kg oral) was “had no effect”, the “effect on wall climbing behavior of rats in forced swimming test” value ([7]; dose 1.73 mg/kg oral) was “had no effect” and the “effect on immobility time of rats” value ([7]; dose 3.46 mg/kg oral) was “had no effect”. The “effect on wall climbing behavior / wall climbing time of rats in forced swimming test” value ([7]; dose 3.46 mg/kg oral) was “had no effect”, the “effect on immobility time of rats” value ([7]; dose 6.92 mg/kg oral) was “significantly affect” and the “effect on wall climbing behavior of rats in forced swimming test” value ([7]; dose 6.92 mg/kg oral) was “significantly affect”. For the same molecule, the mouse social time ([8]; FIG. 5A) was “did not work during the third week of administration” and the “social proportion of mice (SI ratio)” value ([8]; FIG. 5B) was “not effective after three weeks of administration”.

In the case of C[C@H]1CC[C@@]2(OC1)O[C@H]1C[C@H]3[C@@H]4CC[C@@H]5C[C@@H](O)CC[C@]5(C)[C@H]4CC[C@]3(C)[C@H]1[C@@H]2C [sarsasapogenin, reference compound], the “effect on immobility time of mouse in tail suspension test compared with the blank group (in words)” value [1] is reported as “could not significantly reduce the immobility time” and the “effect on immobility time of mice in forced swimming test compared with the blank group (in words)” value [3] is reported as “could not significantly reduce the immobility time”.

With C[C@H]1CC[C@@]2(OC1)O[C@H]1C[C@H]3C4CC[C@@H]5C[C@@H](O[C@@H]6OC(CO)[C@H](O)[C@H](O)C6O)CC[C@]5(C)C4CC[C@]3(C)C1[C@@H]2C (stereo partly drawn) [timosaponin A1, reference compound] the “effect on immobility time of mouse in tail suspension test compared with the blank group (in words)” value [1] was “could not significantly reduce the immobility time” and the “effect on immobility time of mice in forced swimming test compared with the blank group (in words)” value [3] was “could not significantly reduce the immobility time”.
